From the supplement of paper PMC8967900

What was measured:
Test in all cases: selective drug sensitivity score (sDSS, relative to normal bone marrow) (sDSS (score)); higher = more potent and effective on the cell line relative to normal bone marrow cells
Details in all cases: 72 h
SUP-B15 = test system: SUP-B15
COG-LL-317 = test system: COG-LL-317
MOLT-4 = test system: MOLT-4
KARPAS-45 = test system: KARPAS-45
CCRF-HSB2 = test system: CCRF-HSB2
697 = test system: 697
JURKAT = test system: JURKAT
NALL-1 = test system: NALL-1
ALL-PO = test system: ALL-PO
HPB-ALL = test system: HPB-ALL
KASUMI-2 = test system: KASUMI-2
COG-LL-402h = test system: COG-LL-402h
NALM-16 = test system: NALM-16
NALM-6 = test system: NALM-6
LC4-1 = test system: LC4-1
DND-41 = test system: DND-41
HAL-01 = test system: HAL-01
RPMI-8402 = test system: RPMI-8402
PF-382 = test system: PF-382
KASUMI-9 = test system: KASUMI-9
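Note: ALL cell lines in 384-well plates, five doses spanning 10,000-fold, each plate scaled between vehicle and 100 µmol/L benzalkonium chloride controls, sDSS an adapted area-under-curve metric.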

| SMILES | selective drug sensitivity score (SUP-B15) | selective drug sensitivity score (COG-LL-317) | selective drug sensitivity score (MOLT-4) | selective drug sensitivity score (KARPAS-45) | selective drug sensitivity score (CCRF-HSB2) | selective drug sensitivity score 697 | selective drug sensitivity score (JURKAT) | selective drug sensitivity score (NALL-1) | selective drug sensitivity score (ALL-PO) | selective drug sensitivity score (HPB-ALL) | selective drug sensitivity score (KASUMI-2) | selective drug sensitivity score (COG-LL-402h) | selective drug sensitivity score (NALM-16) | selective drug sensitivity score (NALM-6) | selective drug sensitivity score (LC4-1) | selective drug sensitivity score (DND-41) | selective drug sensitivity score (HAL-01) | selective drug sensitivity score (RPMI-8402) | selective drug sensitivity score (PF-382) | selective drug sensitivity score (KASUMI-9) |
| --- | --- | --- | --- | --- | --- | --- | --- | --- | --- | --- | --- | --- | --- | --- | --- | --- | --- | --- | --- | --- |
| Nc1ccccc1NC(=O)c1ccc(CNC(=O)OCc2cccnc2)cc1 [Entinostat] (top concentration 10000 nM) | 7.08 | 2.98 | 1.48 | 9.48 | 3.28 | 8.28 | 2.68 | -0.82 | 4.08 | 4.28 | 7.68 | 4.98 | 0.28 | 1.08 | 4.48 | 1.28 | 2.58 | 5.08 | 2.08 | 8.28 |
| C#Cc1cccc(Nc2ncnc3cc(OCCOC)c(OCCOC)cc23)c1 [Erlotinib] (top concentration 10000 nM) | 8.96 | 0.16 | 1.56 | 2.86 | 4.66 | 5.86 | 2.26 | -1.24 | 5.46 | 0.66 | 3.96 | 4.06 | -1.24 | -1.24 | 8.66 | -1.24 | 0.46 | 2.26 | 0.46 | 3.26 |
| O=C(Nc1nc2cccc(-c3ccc(CN4CCS(=O)(=O)CC4)cc3)n2n1)C1CC1 [Filgotinib] (top concentration 10000 nM) | -0.64 | 1.16 | -5.34 | -1.04 | -2.54 | 0.06 | -1.34 | 5.86 | 6.16 | -1.34 | -0.74 | -1.54 | -5.34 | -2.44 | -1.94 | 1.66 | 5.66 | -2.24 | -2.24 | 0.26 |
| C[C@H]1C=C2C(=O)O[C@H]3CC[C@@H](C1)[C@@]23O [Galiellalactone] (top concentration 25000 nM) | 3.46 | 7.36 | -0.44 | 5.16 | 2.76 | 3.26 | 1.66 | -4.54 | -0.34 | 5.16 | -0.44 | 3.76 | 6.06 | 5.16 | 7.16 | 3.86 | 6.06 | 0.06 | 4.16 | 6.76 |
| CN(C)C1CCN(C(=O)c2ccc(NC(=O)Nc3ccc(-c4nc(N5CCOCC5)nc(N5CCOCC5)n4)cc3)cc2)CC1 [Gedatolisib] (top concentration 1000 nM) | 8.36 | 5.06 | 5.46 | 3.76 | 8.86 | 11.3 | 2.66 | 1.16 | 1.06 | -0.04 | 7.56 | 8.56 | 1.46 | 5.16 | 3.06 | 4.46 | -4.54 | 3.66 | 5.06 | 9.36 |
| Nc1ccn([C@@H]2O[C@H](CO)[C@@H](O)C2(F)F)c(=O)n1 [Gemcitabine] (top concentration 1000 nM) | 17.1 | 20.4 | 10.4 | -7.44 | 22 | 21 | 9.16 | 10.3 | 8.06 | 0.96 | 15.1 | 18.6 | 8.06 | 14.5 | 16.7 | 9.26 | 20.4 | 9.56 | 13.5 | 16.3 |
| COc1cc2c(cc1-c1c(C)noc1C)ncc1[nH]c(=O)n([C@H](C)c3ccccn3)c12 [I-BET151] (top concentration 10000 nM) | 5.96 | 6.56 | -4.34 | 9.16 | 0.06 | 9.36 | 0.36 | -0.14 | 6.36 | 1.36 | -2.94 | 5.46 | 2.06 | 3.46 | 7.26 | 0.86 | 1.26 | 4.36 | 4.06 | 11.2 |
| O=C1CCc2c(Oc3ccc4c(c3)[C@@H]3[C@H](O4)[C@H]3c3nc4cc(C(F)(F)F)ccc4[nH]3)ccnc2N1 [Lifirafenib (BGB-283)] (top concentration 10000 nM) | 17 | 2.28 | 1.38 | 2.88 | 8.88 | 6.68 | 5.28 | 8.28 | 6.98 | 0.98 | 1.98 | 2.38 | -0.02 | 5.58 | 3.28 | 1.18 | 6.48 | 2.28 | 3.18 | 5.58 |
| NC(=O)N1CCC(CC(=O)N2CCC([C@H]3c4ncc(Br)cc4CCc4cc(Cl)cc(Br)c43)CC2)CC1 [Lonafarnib] (top concentration 100000 nM) | 11.9 | 14 | 10.5 | 24.1 | 9.14 | 7.54 | 5.74 | 1.54 | 4.64 | 9.84 | 6.14 | 3.64 | 4.04 | 6.24 | 3.44 | 4.54 | 3.44 | 19.2 | 9.44 | 9.14 |
| NC1(c2ccc(-c3nc4ccn5c(=O)[nH]nc5c4cc3-c3ccccc3)cc2)CCC1 [MK-2206] (top concentration 1000 nM) | -0.44 | 3.56 | 2.76 | 2.26 | 3.26 | 3.76 | -0.24 | 6.26 | 5.46 | 1.06 | 6.46 | 2.76 | 2.46 | 2.76 | 0.06 | -1.64 | 6.96 | 1.96 | 3.26 | 4.36 |
| O=C(Nc1cccc(NC(=O)c2cccc(O)c2O)c1)c1cccc(O)c1O [MST-312] (top concentration 10000 nM) | 9.5 | 18.2 | 9.2 | 8.1 | 12.8 | -1.2 | 12.5 | 0.8 | 5.6 | 8.7 | -1.6 | 8.6 | 2.8 | 9.5 | 8.1 | 7.2 | 7.6 | 5.9 | 6 | 5 |
| CC(=O)O[C@]1(C(C)=O)CC[C@H]2[C@@H]3C=C(C)C4=CC(=O)CC[C@]4(C)[C@H]3CC[C@@]21C [Megestrol_acetate] (top concentration 10000 nM) | 0.32 | -0.58 | 0.02 | 2.72 | 0.62 | 2.52 | 1.02 | 6.52 | 17.9 | -0.58 | -0.58 | -0.38 | -0.58 | 1.72 | -0.38 | 16.8 | 3.32 | 0.52 | 0.32 | 3.92 |
| CO[C@@H]1[C@H](N(C)C(=O)c2ccccc2)C[C@H]2O[C@]1(C)n1c3ccccc3c3c4c(c5c6ccccc6n2c5c31)C(=O)NC4 [Midostaurin] (top concentration 10000 nM) | 8.96 | 8.96 | 8.66 | 4.06 | 11.7 | 14 | -1.34 | 5.36 | 14.8 | 4.36 | -1.14 | 6.86 | -0.64 | 7.56 | 10.6 | 2.46 | 3.06 | 3.66 | 4.46 | 11.7 |
| CCCCCCCCCCCCCCCCOP(=O)([O-])OCC[N+](C)(C)C [Miltefosine] (top concentration 100000 nM) | 2.36 | 1.06 | 0.26 | 2.26 | 7.26 | 1.46 | -1.14 | 5.26 | 2.26 | -2.94 | 1.76 | 0.46 | -0.34 | 1.66 | 7.46 | 2.66 | -1.34 | 1.46 | 1.16 | 0.46 |
| Nc1ccccc1NC(=O)c1ccc(CNc2nccc(-c3cccnc3)n2)cc1 [Mocetinostat] (top concentration 10000 nM) | 9.64 | 5.64 | 5.24 | 8.84 | 3.94 | 8.84 | 6.74 | -3.16 | 7.24 | 8.64 | 6.74 | 8.84 | -0.46 | 2.94 | 9.14 | 7.44 | 2.14 | 6.34 | 6.04 | 9.14 |
| CCNC(=O)C[C@@H]1N=C(c2ccc(Cl)cc2)c2cc(OC)ccc2-n2c(C)nnc21 [Molibresib] (top concentration 10000 nM) | 3.2 | 3.2 | -4.4 | 5.3 | -0.5 | 7.4 | -0.6 | 3.4 | 3.6 | 0.8 | -2.7 | 5.3 | 1.6 | 3.2 | 3.7 | -0.9 | 2.7 | 1.4 | 2.7 | 9.1 |
| Nc1ncnc2c1c(-c1cccc(OCc3ccccc3)c1)cn2[C@H]1C[C@@H](CN2CCC2)C1 [NVP-AEW541] (top concentration 10000 nM) | -2.02 | -2.32 | -3.22 | -0.92 | -0.62 | -2.72 | -4.72 | -0.42 | 3.98 | 1.58 | -3.62 | -0.72 | -1.42 | -4.02 | -0.92 | -1.12 | 0.58 | -1.32 | -1.52 | -2.72 |
| CN[C@@H](C)C(=O)N[C@H](C(=O)N1CCC[C@H]1c1nc(C(=O)c2ccc(F)cc2)cs1)C1CCCCC1 [NVP-LCL161] (top concentration 25000 nM) | -3.82 | -2.02 | -4.32 | -1.82 | 1.88 | -4.92 | -3.82 | 2.48 | 0.38 | -2.62 | 2.88 | -5.42 | -5.82 | -5.82 | -5.42 | -2.72 | 7.88 | -2.42 | -4.12 | -2.72 |
